From patent publication US20140315956A1, “SMALL MOLECULE INHIBITORS OF IL-6 AND USES THEREOF” (NATIONWIDE CHILDREN'S HOSPITAL, priority 2011, published 2014)
pKd: −log10 of the molar value. “Also recorded” adds a separate entry of the source. Like-named read-outs stand apart in the source and are kept apart here.

What was measured:
[1] = tested on: nuclear translocation of STAT3 in MCF-7 cells; test: Immunofluorescence of IL6-activated STAT3 nuclear translocation in MCF-7 cells; assay type: cell-based
[2] = tested on: Stat3 phosphorylation (p-Tyr705) induced by IL-6 in LNCaP prostate cancer cells; test: IL-6 induced Stat3 phosphorylation in LNCaP cells, Western blot; assay type: cell-based; conditions: for inhibition of Stat3 phosphorylation induced by IL6: Western blot; for relative potency of inhibition of Stat3 phosphorylation: comparison in words
Protocol: LNCaP prostate cancer cells were acquired from American Type Culture Collection. Cells were maintained in RPMI 1640 medium, 1× with 4.5 g/L L-glutamine, supplemented with 10% FBS, 100 U/ml penicillin and […] streptomycin (Invitrogen), in a humidified atmosphere of 5% CO2 at 37° C.
LNCaP prostate cancer cells were seeded in T75 flasks, grown to 50% confluence and serum-starved the following night. The cells were left untreated or were treated with MDL-A (100-400 μM), 1, 2 (5-40 μM) or DMSO in the absence of FBS. After 4 hours, the cells were stimulated with 12.5 ng/ml IL-6 (Cell Signaling Technology). The cells were then harvested at 30 minutes and washed with PBS and lysed in cold M-PER lysis buffer (Pierce) containing protease inhibitors (Sigma) and phosphatase inhibitors (Roche). Lysates were centrifuged at 14,000 rpm for 15 minutes at 4° C. and supernatants were collected and stored at −20° C. until further use.
Cell lysates were assayed for their protein concentrations using the Bradford protein assay reagent (Pierce), using BSA (Fisher Scientific) as the standard. Lysate samples were adjusted for the same protein concentration, approximately 5 μg of sample protein was loaded into each of the appropriate lanes. Protein samples were separated by SDS-PAGE and electrotransferred to PVDF membranes. The membranes were washed and blocked with 5% BSA in TBST (60 mM Tris-base, 120 mM NaCl, 0.1% Tween-20) for at least one hour and incubated with anti-phospho-STAT3 (p-Tyr705) antibody, anti-STAT3 antibody or anti-GAPDH antibody (all from Cell Signaling Technology) in 5% BSA in TBST overnight at 4° C. Blots were then washed three times in TBST and incubated with a horseradish peroxidase-conjugated goat anti-rabbit IgG secondary antibody (Cell Signaling Technology) in 5% BSA in TBST for 1 hour at room temperature. The bound antibody was detected using Enhanced Chemiluminescence detection reagents (Pierce) according to the manufacturer's instructions and chemiluminescence visualized using ECL Hyperfilm (Amersham).

[3] = target: T1, gp130 extracellular domain (recombinant gp130-Fc-HA) (Homo sapiens, UniProt P40189); test: Surface plasmon resonance direct binding to gp130-Fc-HA; conditions: for Kd: gp130-Fc-HA on CM5 chip, BIAcore T100, read-out: SPR data (Kd μM); for binding in SPR direct binding assay, comparison in words: relative to MDL-A or to other analogues
T1 construct: purified gp130 (amino residue 18-615); made in house; host or cells: HEK293T (plasmid from Dr. John J. Krolewski)
T1 sequence (P40189 18-615): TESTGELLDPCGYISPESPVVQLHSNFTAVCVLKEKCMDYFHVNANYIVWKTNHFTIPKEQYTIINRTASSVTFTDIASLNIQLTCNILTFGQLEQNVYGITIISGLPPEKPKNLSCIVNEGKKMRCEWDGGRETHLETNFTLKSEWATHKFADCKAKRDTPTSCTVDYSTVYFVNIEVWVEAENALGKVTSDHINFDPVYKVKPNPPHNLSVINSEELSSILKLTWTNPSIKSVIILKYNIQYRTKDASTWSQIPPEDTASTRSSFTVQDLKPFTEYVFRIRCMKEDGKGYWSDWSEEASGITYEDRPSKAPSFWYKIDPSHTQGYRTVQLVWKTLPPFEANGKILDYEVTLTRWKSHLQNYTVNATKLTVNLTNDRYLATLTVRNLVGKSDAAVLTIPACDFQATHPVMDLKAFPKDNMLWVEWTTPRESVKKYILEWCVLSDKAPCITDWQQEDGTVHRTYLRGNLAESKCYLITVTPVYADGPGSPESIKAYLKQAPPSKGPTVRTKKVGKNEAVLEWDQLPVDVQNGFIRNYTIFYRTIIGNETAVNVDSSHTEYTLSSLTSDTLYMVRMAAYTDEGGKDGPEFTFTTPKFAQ
Protocol: HEK293T cells were grown in media containing DMEM+10% fetal bovine serum (FBS),100 U/ml penicillin and […] streptomycin (Invitrogen) in a humidified 37° C. incubator with 5% CO2. Plasmid DNA expressing gp130-Fc-HA was transfected in the form of calcium phosphate precipitate into HEK293T cells (ten T75 flasks containing 5.5×10^6 cells). The supernatant was harvested sixty hours post transfection and centrifuged to remove residual cells and adjusted to pH 8.0. The supernatant was passed through a 0.45 μm filter. The gp130-Fc-HA tagged protein was immunoprecipitated using anti-HA affinity matrix (Roche Applied Bioscience).A one milliliter column containing anti-HA affinity matrix was equilibrated with 20 mM Tris-HCl, 0.1M NaCl, 0.1 mM EDTA (pH 8.0). The supernatant was applied to the equilibrated column and the column was washed successively with 20 mM Tris-HCl, 1M NaCl (pH 8.0). Bound protein was eluted with HA peptide dissolved in equilibration buffer. The column was regenerated with 0.1 M glycine (pH 2.0). Fractions containing recombinant protein were pooled, dialyzed against HBS buffer [10 mM HEPES (pH 7.4), 0.15 M NaCl, 3 mM EDTA, 0.005% P20] and concentrated by Centricon 30 (Amicon) centrifugation. Protein concentration was determined using Bradford protein assay reagent (Pierce), with bovine serum albumin (BSA, Fisher Scientific) as a standard. The purified recombinant gp130 protein was analyzed using SDS-PAGE and immunoblotting.
Surface plasmon resonance (SPR) analysis was performed using BIAcore T100. Recombinant gp130-Fc-HA was cross-linked to the flow cell on a carboxymethylated dextran matrix of a CM5 sensor chip (BIAcore) using standard amino group coupling methods according to the manufacturer's instructions. Sodium acetate (10 mM, pH 3.5) gave the best immobilization of the protein on the chip surface and unreactive groups on the chip were blocked by ethanolamine according to the manufacturer's instructions. Approximately 5000 resonance units (RU) of gp130-Fc-HA were cross-linked to the flow cell. HBS+1% DMSO were used in all buffers (running and sample) to avoid background response due to differences in buffer refractive index. For the equilibrium analysis, various concentrations of MDL-A, 1, and 2 were injected for a period of 2 min at a flow rate of 30 μl/min, in series, into flow cells containing covalently bound gp130-fc-HA and reference flow cell. Bound ligand (MDL-A, 1, and 2) in each assay was removed by passing 10 mM glycine (pH 2.2) over the chip surface. Biacore T100 Evaluation 2.0 was used for all interaction analyses. The steady-state equilibrium response (RUeq) was determined from the reference-subtracted sensogram. The kinetics parameter was calculated according to a 1:1 Langmuir binding model (A+B ? AB) by direct fitting of ligand binding sensor grams at multiple concentrations. The dissociation equilibrium constant is defined as dissociation constant (KD)=dissociation rate constant (kd)/association rate constant (ka). KD was determined by scattered analysis of equilibrium-state data obtained at different concentrations of analogues.
To examine the direct binding and calculation of equilibrium dissociation constant (KD) of MDL-A analogues with gp130 extracellular domain, surface plasmon resonance analysis was done. Protein was covalently cross linked to the dextran matrix of the biosensor chip CM5. Successively, various concentrations of MDL-A and MDL-A analogues were injected into the flow cells containing bound protein and no protein (reference). Interactions were monitored in real time and KD values were calculated by reference-substrated sensogram.
To examine the direct binding and calculate the equilibrium dissociation constant (KD) of MDL-A analogues with gp130 extracellular domain, surface plasmon resonance analysis was performed. Surface plasmon resonance (SPR) analysis was performed using a BIAcore T100. […]

[4] = tested on: Stat3 phosphorylation (p-Tyr705) induced by IL-6 in LNCaP prostate cancer cells; test: IL-6 induced Stat3 phosphorylation in LNCaP cells, Western blot; assay type: cell-based; conditions: IL-6 12.5 ng/ml 30 min
[5] = tested on: IL6 mediated STAT3 phosphorylation; test: IL6 induced phosphorylation of STAT3 (FIG. 34); assay type: cell-based
[6] = tested on: SUM-159 breast cancer cells tumor xenograft; test: Tumor xenograft model with SUM-159 breast cancer cells; assay type: in vivo, human; conditions: 100 mg/kg, SUM-159 xenograft, vehicle DMSO
Source text: The effect of a representative compound, MDL-16, on tumor progression is compared to a group treated with vehicle (DMSO).

[7] = tested on: LIF mediated STAT3 phosphorylation; test: LIF induced phosphorylation of STAT3 (FIG. 34); assay type: cell-based
[8] = gp130 extracellular domain, Biacore evaluation software 2.0, read-out: KD

Kd [3] [µM]	pKd [3, 8]	pKd ([3]; values in running text and figure legend, read-out: dissociation constant (KD))	Compound	nuclear translocation of STAT3 activated by IL6 [1]	inhibition of Stat3 phosphorylation induced by IL6 ([2]; IL-6 12.5 ng/ml 30 min)	binding in SPR direct binding assay, comparison in words [3]	inhibition of Stat3 phosphorylation induced by IL-6 at 40 µM [4]	relative potency of inhibition of Stat3 phosphorylation [2]	IL6 mediated STAT3 phosphorylation [5]	effect on tumor progression compared to vehicle [6]	inhibition of Stat3 phosphorylation induced by IL-6 at 40 µM ([2]; 40 μM compound 4 hours, IL-6 12.5 ng/ml 30 min)	LIF mediated STAT3 phosphorylation [7]
37	4.43	–	CCCCc1ccc(O)c(CN2c3ccccc3[C@]3(O)C[C@H](COC(=O)c4ccccc4)O[C@H]23)c1O (stereo in doubt) [MDL-5, ((2S,3AR)-8-(3-butyl-2,6-Dihydroxybenzyl)-3A-Hydroxy-3,3A,8,8A-Tetrahydro-2H-Furo[2,3-B]Indol-2-Yl)Methyl Benzoate]	inhibits the nuclear translocation of STAT3	dose dependent inhibition	stronger binding than analogues without extra attachments; also recorded: better binding than MDL-A; also recorded: better activity than MDL-A	–	–	–	–	–	–
–	–	–	CCCCn1nccc1C(=O)CN1c2ccccc2[C@]2(O)CCO[C@H]12 [MDL-3]	–	–	better binding than MDL-A	–	–	–	–	–	–
49.5	4.31	–	CCCCc1ccc(O)c(Cn2cc(CCO)c3ccccc32)c1O [MDL-6]	–	–	better binding than MDL-A; also recorded: better activity than MDL-A	completely inhibit	slightly more potent than MDL-5	–	–	–	–
40.8	4.39	–	CCCCc1ccc(O)c(Cn2cc(CCO)c3cc(C(=O)OC)ccc32)c1O [MDL-7]	–	–	better binding than MDL-A; also recorded: better activity than MDL-A	completely inhibit	slightly more potent than MDL-5	–	–	–	–
29	–	4.53	CCCCc1ccc(O)c(Cn2cc(C[C@H](O)COC(=O)c3ccccc3)c3ccccc32)c1O [MDL-16, (S)-3-(1-(3-Butyl-2,6-Dihydroxybenzyl)-1H-Indol-3Yl)-2-Hydroxypropyl Benzoate]	inhibits the nuclear translocation of STAT3	dose dependent inhibition	stronger binding than analogues without extra attachments; also recorded: strongest binding affinity; also recorded: better binding than MDL-A; also recorded: better activity than MDL-A	–	slightly more potent than MDL-5	inhibits IL6 mediated STAT3 phosphorylation	significant effect on tumor progress compared to vehicle	completely inhibits	not LIF mediated STAT3 phosphorylation
42.5	–	–	CCCCc1ccc(OC)c(CN2c3ccccc3[C@]3(O)C[C@H](COC(=O)c4ccccc4)O[C@H]23)c1OC [MDL-17]	–	–	stronger binding than analogues without extra attachments; also recorded: better binding than MDL-A; also recorded: better activity than MDL-A	–	–	–	–	–	–

Compound	Kd [3] [µM]	pKd [3, 8]	pKd ([3]; values in running text and figure legend, read-out: dissociation constant (KD))	nuclear translocation of STAT3 activated by IL6 [1]	inhibition of Stat3 phosphorylation induced by IL6 ([2]; IL-6 12.5 ng/ml 30 min)	binding in SPR direct binding assay, comparison in words [3]	inhibition of Stat3 phosphorylation induced by IL-6 at 40 µM [4]	relative potency of inhibition of Stat3 phosphorylation [2]	IL6 mediated STAT3 phosphorylation [5]	effect on tumor progression compared to vehicle [6]	inhibition of Stat3 phosphorylation induced by IL-6 at 40 µM ([2]; 40 μM compound 4 hours, IL-6 12.5 ng/ml 30 min)	LIF mediated STAT3 phosphorylation [7]
CCCCc1ccc(OC)c(Cn2cc(CCO)c3ccccc32)c1OC [MDL-8]	41.4	4.38	–	–	–	better binding than MDL-A; also recorded: better activity than MDL-A	–	–	–	–	–	–
